Assays:
[1] = system: small colony diphtheroids; conditions: human stratum corneum blended in physiological saline; U.S. Patent No. 4,518,517; cited from earlier work
[2] = system: adherence of aerobic diphtheroids to undifferentiated HE cells; experiment: Inhibition of bacterial adherence to undifferentiated human epithelial cells; format: cell-based; conditions: 17 mg/ml final concentration
Experimental: Skin microorganisms were isolated from the axillae of ten healthy human volunteers (male and female). Corynebacterium diphtheriae, Corynebacterium group J-K, and Escherichia coli 1677 were also obtained. The latter bacteria were included as controls for the adherence experiments. Microorganisms were maintained either by subculture on blood agar plates or trypticase soy agar base with 5% defibrinated sheep's blood. Stock cultures were frozen at -20°C in semi-solid trypticase soy agar for aerobes and chopped meat carbohydrate broth for anaerobes. For in vitro adherence assays the lipophilic corynebacteria were serially subcultured three times for periods of 24 hrs. in tryptose broth with 0.5% Tween-80.
Isolation of microorganisms from the axillae was performed by addition of 1 ml of a 0.1% Triton X-100 solution onto a sterile glass cylinder placed firmly on the skin in the axilla (total area 3.8cm²). […]
Human epithelial (HE) cells (primary culture from normal human epidermal keratinocytes) were used to assess the adherence of the axillary microorganisms. […] Differentiation of HE cells was induced by addition of calcium chloride (CaCl₂) to a concentration of 2 mM/L. Differentiation was assessed by mound formation (3 to 5 layers of cells) during tissue culture and by a modified Ayoub-Shklar's stain for differentiated epithelial cells. […]

[3] = system: adherence of aerobic diphtheroids to differentiated HE cells; experiment: Inhibition of bacterial adherence to differentiated human epithelial cells; format: cell-based; conditions: for inhibition of attachment of aerobic skin bacteria to differentiated HE cells (in words) / inhibition at 17000 µg/mL: 17 mg/ml final concentration; for inhibition at 17000 µg/mL: Homo sapiens, Epithelial cell

Compound	effect on diphtheroid bacterial attachment to the skin sample (in words) [1]	further results
OC[C@H]1O[C@H](O[C@H]2[C@H](O)[C@@H](O)[C@H](O)O[C@@H]2CO)[C@H](O)[C@@H](O)[C@@H]1O [maltose]	a greater amount of bacteria attached to the skin than one treated with mannose	
CC(=O)N[C@H]1C(O)O[C@H](CO)[C@@H](O)[C@@H]1O (stereo partly drawn) [NAGA, N-acetyl-D-glucosamine]	neither galactose nor N-acetyl glucosamine had an effect	inhibition of attachment of aerobic skin bacteria to undifferentiated HE cells (in words) [2]: consistently able to inhibit attachment; inhibition of attachment of aerobic skin bacteria to differentiated HE cells (in words) [3]: consistently able to inhibit attachment
OC[C@H]1O[C@H](OC[C@H]2O[C@H](O[C@]3(CO)O[C@H](CO)[C@@H](O)[C@@H]3O)[C@H](O)[C@@H](O)[C@@H]2O)[C@H](O)[C@@H](O)[C@H]1O [raffinose]	a greater amount of bacteria attached to the skin than one treated with mannose	
C[C@H](O)[C@H](O)[C@@H](O)[C@@H](O)C=O [rhamnose]	a greater amount of bacteria attached to the skin than one treated with mannose	
C[C@@H](O)[C@H](O)[C@H](O)[C@@H](O)C=O [fucose, D(+) fucose]		inhibition of attachment of aerobic skin bacteria to undifferentiated HE cells (in words) [2]: consistently able to inhibit attachment; inhibition of attachment of aerobic skin bacteria to differentiated HE cells (in words) [3]: consistently able to inhibit attachment
O=C[C@H](O)[C@@H](O)[C@@H](O)[C@H](O)CO [galactose, D(+) galactose]	neither galactose nor N-acetyl glucosamine had an effect	inhibition of attachment to differentiated epithelial cells (in words) [3]: poor capacity to inhibit attachment; inhibition at 17000 µg/mL [3]: 70 to 90%
OC[C@H]1O[C@@H](O[C@H]2[C@H](O)[C@@H](O)C(O)O[C@@H]2CO)[C@H](O)[C@@H](O)[C@H]1O (stereo partly drawn) [lactose]	a greater amount of bacteria attached to the skin than one treated with mannose	
O=C(CO)[C@@H](O)[C@H](O)[C@H](O)CO [fructose]	a greater amount of bacteria attached to the skin than one treated with mannose	
OC[C@H]1O[C@@](CO)(O[C@H]2O[C@H](CO)[C@@H](O)[C@H](O)[C@H]2O)[C@@H](O)[C@@H]1O [Sucrose, sucrose, reference compound]	a greater amount of bacteria attached to the skin than one treated with mannose	inhibition at 17000 µg/mL [3]: -12.8 to 22.6%
